From PubChem BioAssay AID1963961 (Molecular Pharmacology Branch, DTP, NCI, 2024)

System: K98450-129-R-PDC multicell spheroids, viability
Experiment: Anticancer human tumor K98450-129-R-PDC patient-derived colon adenocarcinoma cell line growth inhibition [PI3K]
Details: for IC50: curve of first compound; for viability, T/C: stronger effect = lower value
Method in brief: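 Three cell types, namely tumor cells, endothelial cells and mesenchymal stem cells, formed each spheroid. Combinations with four PI3K inhibitors were screened at clinically achievable concentrations decreasing by half-log, and spheroid viability was recorded.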

[1] = second compound 0.0316 µM, first compound 0.0316 µM
[2] = second compound 0.0316 µM, first compound 0.1 µM
[3] = second compound 0.0316 µM, first compound 0.316 µM
[4] = second compound 0.0316 µM, first compound 1 µM
[5] = second compound 0.1 µM, first compound 0.0316 µM
[6] = second compound 0.1 µM, first compound 0.1 µM
[7] = second compound 0.1 µM, first compound 0.316 µM
[8] = second compound 0.1 µM, first compound 1 µM
[9] = second compound 0.316 µM, first compound 0.0316 µM
[10] = second compound 0.316 µM, first compound 0.1 µM
[11] = second compound 0.316 µM, first compound 0.316 µM
[12] = second compound 0.316 µM, first compound 1 µM
[13] = second compound 1 µM, first compound 0.0316 µM
[14] = second compound 1 µM, first compound 0.1 µM
[15] = second compound 1 µM, first compound 0.316 µM
[16] = second compound 1 µM, first compound 1 µM
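Note: spheroids exposed to agents for seven days before read-out.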

With `CCN1CCN(Cc2ccc(Nc3ncc(F)c(-c4cc(F)c5nc(C)n(C(C)C)c5c4)n3)nc2)CC1` + COc1c(OCCCN2CCOCC2)ccc2c3n(c(=NC(=O)c4cnc(N)nc4)nc12)CCN3 the IC50 (second compound 0.00316 µM) was greater than 1 µM, the IC50 (second compound 0.01 µM) was greater than 1 µM and the IC50 (second compound 0.0316 µM) was greater than 1 µM. For the same compound, the IC50 (second compound 0.1 µM) was greater than 1 µM, the IC50 (second compound 0.316 µM) was greater than 1 µM and the IC50 (second compound 1 µM) was less than 0.00316 µM. The viability, T/C (second compound 0.00316 µM, first compound 0.00316 µM) was 99.6%, the viability, T/C (second compound 0.00316 µM, first compound 0.01 µM) was 108% and the viability, T/C (second compound 0.00316 µM, first compound 0.0316 µM) was 88.9%. For the same compound, the viability, T/C (second compound 0.00316 µM, first compound 0.1 µM) was 86.9%, the viability, T/C (second compound 0.00316 µM, first compound 0.316 µM) was 87.5% and the viability, T/C (second compound 0.00316 µM, first compound 1 µM) was 79.4%. The viability, T/C (second compound 0.01 µM, first compound 0.00316 µM) was 117%, the viability, T/C (second compound 0.01 µM, first compound 0.01 µM) was 93.7% and the viability, T/C (second compound 0.01 µM, first compound 0.0316 µM) was 81.6%. For the same compound, the viability, T/C (second compound 0.01 µM, first compound 0.1 µM) was 94%, the viability, T/C (second compound 0.01 µM, first compound 0.316 µM) was 71.1% and the viability, T/C (second compound 0.01 µM, first compound 1 µM) was 75.8%. The viability, T/C (second compound 0.0316 µM, first compound 0.00316 µM) was 78.3%, the viability, T/C (second compound 0.0316 µM, first compound 0.01 µM) was 64.5% and the viability, T/C [1] was 81.9%. It also gave a viability, T/C [2] of 66.8%, a viability, T/C [3] of 72.8% and a viability, T/C [4] of 110%. It also gave a viability, T/C (second compound 0.1 µM, first compound 0.00316 µM) of 71.6%, a viability, T/C (second compound 0.1 µM, first compound 0.01 µM) of 64.9% and a viability, T/C [5] of 85.6%. For the same compound, the viability, T/C [6] was 57.3%, the viability, T/C [7] was 64.2% and the viability, T/C [8] was 70.7%. The viability, T/C (second compound 0.316 µM, first compound 0.00316 µM) was 53.1%, the viability, T/C (second compound 0.316 µM, first compound 0.01 µM) was 64.6% and the viability, T/C [9] was 57.3%. The viability, T/C [10] was 46.2%, the viability, T/C [11] was 64.7% and the viability, T/C [12] was 60%. For the same compound, the viability, T/C (second compound 1 µM, first compound 0.00316 µM) was 56%, the viability, T/C (second compound 1 µM, first compound 0.01 µM) was 45% and the viability, T/C [13] was 45.8%. For the same compound, the viability, T/C [14] was 47.8%, the viability, T/C [15] was 59.8% and the viability, T/C [16] was 65.2%.

With `Cn1nccc1Nc1nccc(-c2ccn(C(CO)c3ccc(Cl)c(F)c3)c(=O)c2)n1` (centres undefined) + CC(Nc1ncnc2nc[nH]c12)c1cc2cccc(Cl)c2c(=O)n1-c1ccccc1 the IC50 (second compound 0.0316 µM) was greater than 10 µM, the IC50 (second compound 0.1 µM) was greater than 10 µM and the IC50 (second compound 0.316 µM) was greater than 10 µM. It also gave an IC50 (second compound 1 µM) greater than 10 µM, an IC50 (second compound 3.16 µM) greater than 10 µM and an IC50 (second compound 10 µM) greater than 10 µM. For the same compound, the viability, T/C [1] was 110%, the viability, T/C [2] was 102% and the viability, T/C [3] was 103%. It also gave a viability, T/C [4] of 94.5%, a viability, T/C (second compound 0.0316 µM, first compound 3.16 µM) of 88.9% and a viability, T/C (second compound 0.0316 µM, first compound 10 µM) of 85.8%. It also gave a viability, T/C [5] of 106%, a viability, T/C [6] of 100% and a viability, T/C [7] of 91.3%. It also gave a viability, T/C [8] of 93.5%, a viability, T/C (second compound 0.1 µM, first compound 3.16 µM) of 94.6% and a viability, T/C (second compound 0.1 µM, first compound 10 µM) of 87%. The viability, T/C [9] was 94.5%, the viability, T/C [10] was 115% and the viability, T/C [11] was 91.6%. For the same compound, the viability, T/C [12] was 92.7%, the viability, T/C (second compound 0.316 µM, first compound 3.16 µM) was 96.6% and the viability, T/C (second compound 0.316 µM, first compound 10 µM) was 56.8%. The viability, T/C [13] was 89.5%, the viability, T/C [14] was 103% and the viability, T/C [15] was 94.6%. For the same compound, the viability, T/C [16] was 85.4%, the viability, T/C (second compound 1 µM, first compound 3.16 µM) was 94% and the viability, T/C (second compound 1 µM, first compound 10 µM) was 81.4%. The viability, T/C (second compound 3.16 µM, first compound 0.0316 µM) was 79.2%, the viability, T/C (second compound 3.16 µM, first compound 0.1 µM) was 86.2% and the viability, T/C (second compound 3.16 µM, first compound 0.316 µM) was 95%. For the same compound, the viability, T/C (second compound 3.16 µM, first compound 1 µM) was 93.8%, the viability, T/C (second compound 3.16 µM, first compound 3.16 µM) was 106% and the viability, T/C (second compound 3.16 µM, first compound 10 µM) was 84.6%. The viability, T/C (second compound 10 µM, first compound 0.0316 µM) was 90%, the viability, T/C (second compound 10 µM, first compound 0.1 µM) was 80% and the viability, T/C (second compound 10 µM, first compound 0.316 µM) was 78.9%. The viability, T/C (second compound 10 µM, first compound 1 µM) was 87.2%, the viability, T/C (second compound 10 µM, first compound 3.16 µM) was 80.7% and the viability, T/C (second compound 10 µM, first compound 10 µM) was 66.3%.
